Data: ChEMBL document CHEMBL1201862, “PubChem BioAssay data set” (2004)
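Cells were grown in 96-well plates and exposed to each compound for 48 hours at five concentrations; endpoints were interpolated linearly between bracketing concentrations, or set to the highest concentration if not reached. Here, GI50 denotes the concentration required for 50% inhibition of growth.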 Activity calls are given as the source filed them. Cut-off read from the data, not from the text of the source: active = GI50 up to about 1.1 µM and inactive = higher.

Experiments:
Test in all cases: NCI-60 cell line screen, 48 h
PC-3 = test system: PC-3
SNB-19 = test system: SNB-19
OVCAR-3 = test system: OVCAR-3
T47D = test system: T47D
NCI-H460 = test system: NCI-H460
NCI-H522 = test system: NCI-H522
HOP-92 = test system: HOP-92
COLO 205 = test system: COLO 205
SF-539 = test system: SF-539
SNB-75 = test system: SNB-75
K562 = test system: K562
SF-268 = test system: SF-268
CAKI-1 = test system: CAKI-1
HOP-62 = test system: HOP-62
SF-295 = test system: SF-295
OVCAR-4 = test system: OVCAR-4
SK-OV-3 = test system: SK-OV-3
RXF 393 = test system: RXF 393
HOP-18 = test system: HOP-18
MDA-MB-231 = test system: MDA-MB-231
Hs-578T = test system: Hs-578T
U-251 = test system: U-251
SK-MEL-28 = test system: SK-MEL-28
HCT-15 = test system: HCT-15
A498 = test system: A498
XF498 = test system: XF498
UACC-257 = test system: UACC-257
SW-620 = test system: SW-620
HL-60 = test system: HL-60
NCI-H226 = test system: NCI-H226
OVCAR-8 = test system: OVCAR-8
M19-MEL = test system: M19-MEL
DMS-114 = test system: DMS-114
HCT-116 = test system: HCT-116
NCI/ADR-RES = test system: NCI/ADR-RES
SR = test system: SR
SK-MEL-2 = test system: SK-MEL-2
BT-549 = test system: BT-549
MDA-N = test system: MDA-N
ACHN = test system: ACHN
M14 = test system: M14
786-0 = test system: 786-0
HT-29 = test system: HT-29
LOX IMVI = test system: LOX IMVI
EKVX = test system: EKVX
RPMI-8226 = test system: RPMI-8226
SN12C = test system: SN12C
IGROV-1 = test system: IGROV-1
OVCAR-5 = test system: OVCAR-5
KM-20L2 = test system: KM-20L2
CCRF-CEM = test system: CCRF-CEM
DMS-273 = test system: DMS-273
DU-145 = test system: DU-145
TK-10 = test system: TK-10
UACC-62 = test system: UACC-62
UO-31 = test system: UO-31
NCI-H23 = test system: NCI-H23
MDA-MB-435 = test system: MDA-MB-435
SK-MEL-5 = test system: SK-MEL-5
A549 = test system: A549
Malme-3M = test system: Malme-3M
MOLT-4 = test system: MOLT-4
MCF7 = test system: MCF7
KM12 = test system: KM12
SNB-78 = test system: SNB-78
DLD-1 = test system: DLD-1
HCC 2998 = test system: HCC 2998

**Q.** Which results are given for `O=C1NC(=O)C2C3C=CC(C12)C1C2C(=O)NC(=O)C2C31` (configuration not stated)?
**A.** GI50 (PC-3): 217 µM (inactive); GI50 (SNB-19): 149 µM (inactive); GI50 (OVCAR-3): 242 µM (inactive); GI50 (T47D): > 250 µM (inactive); GI50 (NCI-H460): 53.7 µM (inactive); GI50 (NCI-H522): 151 µM (inactive); GI50 (HOP-92): 128 µM (inactive); GI50 (COLO 205): 82.4 µM (inactive); GI50 (SF-539): 191 µM (inactive); GI50 (SNB-75): 197 µM (inactive); GI50 (K562): 234 µM (inactive); GI50 (SF-268): > 250 µM (inactive); GI50 (CAKI-1): 203 µM (inactive); GI50 (HOP-62): 74.3 µM (inactive); GI50 (SF-295): 174 µM (inactive); GI50 (OVCAR-4): 223 µM (inactive); GI50 (SK-OV-3): 98.6 µM (inactive); GI50 (RXF 393): 220 µM (inactive); GI50 (HOP-18): 222 µM (inactive); GI50 (MDA-MB-231): > 250 µM (inactive); GI50 (Hs-578T): 100 µM (inactive); GI50 (U-251): 203 µM (inactive); GI50 (SK-MEL-28): 222 µM (inactive); GI50 (HCT-15): 237 µM; GI50 (A498): 158 µM (inactive); GI50 (XF498): 143 µM (inactive); GI50 (UACC-257): 238 µM (inactive); GI50 (SW-620): 167 µM (inactive); GI50 (HL-60): 183 µM (inactive); GI50 (NCI-H226): 177 µM (inactive); GI50 (OVCAR-8): 203 µM (inactive); GI50 (M19-MEL): 177 µM (inactive); GI50 (DMS-114): 125 µM (inactive); GI50 (HCT-116): 211 µM (inactive); GI50 (NCI/ADR-RES): > 250 µM (inactive); GI50 (SR): 135 µM (inactive); GI50 (SK-MEL-2): 173 µM (inactive); GI50 (BT-549): > 250 µM (inactive); GI50 (MDA-N): 701 µM (inactive); GI50 (ACHN): > 250 µM (inactive); GI50 (M14): 240 µM (inactive); GI50 (786-0): 682 µM (inactive); GI50 (HT-29): 177 µM (inactive); GI50 (LOX IMVI): 241 µM (inactive); GI50 (EKVX): 234 µM (inactive); GI50 (RPMI-8226): 185 µM (inactive); GI50 (SN12C): 192 µM (inactive); GI50 (IGROV-1): 186 µM (inactive); GI50 (OVCAR-5): > 250 µM (inactive); GI50 (KM-20L2): 208 µM (inactive); GI50 (CCRF-CEM): 54.8 µM (inactive); GI50 (DMS-273): 116 µM (inactive); GI50 (DU-145): > 250 µM (inactive); GI50 (TK-10): > 250 µM (inactive); GI50 (UACC-62): 107 µM (inactive); GI50 (UO-31): 211 µM (inactive); GI50 (NCI-H23): 245 µM (inactive); GI50 (MDA-MB-435): > 1000 µM (inactive); GI50 (SK-MEL-5): 195 µM (inactive); GI50 (A549): 93.8 µM (inactive); GI50 (Malme-3M): 187 µM (inactive); GI50 (MOLT-4): > 100 µM (inactive); GI50 (MCF7): 164 µM (inactive); GI50 (KM12): 220 µM (inactive); GI50 (SNB-78): 204 µM (inactive); GI50 (DLD-1): 228 µM (inactive); GI50 (HCC 2998): 221 µM (inactive)
